Experimental data taken from a compilation of properties of binary mixtures (doi:10.1007/s10973-018-7399-0).

Test: xn = mol fraction of the nth substance listed
Conditions: 93.2 kPa

CC(=O)[O-].CCCC[NH3+] + CCO
Conditions | speed of sound, 293.15 K [m/s] | speed of sound, 298.15 K [m/s] | speed of sound, 303.15 K [m/s] | speed of sound, 308.15 K [m/s] | speed of sound, 313.15 K [m/s] | viscosity, 293.15 K [mPa·s] | viscosity, 298.15 K [mPa·s] | viscosity, 303.15 K [mPa·s] | viscosity, 308.15 K [mPa·s] | viscosity, 313.15 K [mPa·s]
x1 = 0.0501 | 1196.2 | 1179.2 | – | 1145.8 | – | 1.96 | 1.76 | – | 1.44 | –
x1 = 0.0992 | 1225.1 | 1208.3 | 1191.7 | 1175.2 | 1158.9 | 2.97 | 2.65 | 2.37 | 2.13 | 1.93
x1 = 0.15 | – | 1234.9 | 1218.5 | 1202.1 | – | – | 3.94 | 3.5 | 3.11 | –
x1 = 0.2001 | – | 1258.4 | 1242.1 | 1225.9 | – | – | 5.77 | 5.08 | 4.49 | –
x1 = 0.2511 | 1296.4 | 1280.1 | 1263.9 | 1247.8 | 1231.9 | 9.6 | 8.32 | 7.24 | 6.34 | 5.58
x1 = 0.3001 | – | 1299 | 1282.9 | 1266.9 | – | – | 11.6 | 10 | 8.67 | –
x1 = 0.35 | 1332.8 | 1316.6 | 1300.6 | – | 1269 | 19.2 | 16.3 | 13.9 | – | 10.3
x1 = 0.3999 | 1349.1 | – | 1317.1 | – | 1285.6 | 26.7 | – | 18.9 | – | 13.9
x1 = 0.4483 | 1363.2 | 1347.1 | 1331.2 | 1315.5 | – | 36.5 | 30.3 | 25.4 | 21.4 | –
x1 = 0.4987 | – | 1361 | 1345.2 | 1329.5 | 1314.1 | – | 41.2 | 34.1 | 28.4 | 24
x1 = 0.5503 | 1390.1 | – | 1358.3 | 1342.7 | 1327.3 | 69.5 | – | 45.9 | 37.9 | 31.6
x1 = 0.6002 | 1402 | – | 1370.2 | 1354.6 | 1339.2 | 94 | – | 60.7 | 49.5 | 40.9
x1 = 0.6511 | 1413.7 | 1397.6 | 1381.7 | 1366.1 | – | 128 | 101.1 | 80.6 | 65 | –
x1 = 0.7008 | – | – | 1392.4 | 1376.8 | 1361.4 | – | – | 106 | 84.2 | 68.1
x1 = 0.7495 | – | – | 1402.4 | 1386.7 | 1371.3 | – | – | 138 | 109 | 86.6
x1 = 0.7988 | – | 1428.3 | 1412.2 | 1396.3 | 1380.9 | – | 235 | 180 | 140 | 110
x1 = 0.8496 | – | – | 1421.9 | – | 1390.4 | – | – | 238 | – | 141
x1 = 0.9015 | 1466 | 1448.3 | 1431.5 | 1415.3 | 1399.6 | 585 | 424 | 313 | 236 | 181
x1 = 0.9493 | 1476.4 | 1457.8 | 1440.5 | 1423.9 | – | 797 | 566 | 412 | 305 | –
x1 = 1 | 1488 | 1468.3 | – | 1433 | 1416.7 | 1103 | 765 | – | 397 | 295
